Data: patent US20190038597A1, “PREVENTION OF VASCULAR AND CARDIAC FIBROSIS VIA IRE1ALPHA INHIBITION” (McMaster University, priority 2017, published 2019)

Tests used:
[1] = molecular target: T1, IRE1α endonuclease (Rattus norvegicus, UniProt A0A4Y1YQ52); assay: XBP1 splicing assay in VSMCs; format: cell-based; conditions: tunicamycin (1 μg/ml) 6 h, 4μ8c 30 μM or STF-083010 60 μM, FIG. 1A
T1 construct: endogenous in cells; host or cells: primary aortic vascular smooth muscle cells from 5-week old WKY rats
T1 sequence (A0A4Y1YQ52 21-977): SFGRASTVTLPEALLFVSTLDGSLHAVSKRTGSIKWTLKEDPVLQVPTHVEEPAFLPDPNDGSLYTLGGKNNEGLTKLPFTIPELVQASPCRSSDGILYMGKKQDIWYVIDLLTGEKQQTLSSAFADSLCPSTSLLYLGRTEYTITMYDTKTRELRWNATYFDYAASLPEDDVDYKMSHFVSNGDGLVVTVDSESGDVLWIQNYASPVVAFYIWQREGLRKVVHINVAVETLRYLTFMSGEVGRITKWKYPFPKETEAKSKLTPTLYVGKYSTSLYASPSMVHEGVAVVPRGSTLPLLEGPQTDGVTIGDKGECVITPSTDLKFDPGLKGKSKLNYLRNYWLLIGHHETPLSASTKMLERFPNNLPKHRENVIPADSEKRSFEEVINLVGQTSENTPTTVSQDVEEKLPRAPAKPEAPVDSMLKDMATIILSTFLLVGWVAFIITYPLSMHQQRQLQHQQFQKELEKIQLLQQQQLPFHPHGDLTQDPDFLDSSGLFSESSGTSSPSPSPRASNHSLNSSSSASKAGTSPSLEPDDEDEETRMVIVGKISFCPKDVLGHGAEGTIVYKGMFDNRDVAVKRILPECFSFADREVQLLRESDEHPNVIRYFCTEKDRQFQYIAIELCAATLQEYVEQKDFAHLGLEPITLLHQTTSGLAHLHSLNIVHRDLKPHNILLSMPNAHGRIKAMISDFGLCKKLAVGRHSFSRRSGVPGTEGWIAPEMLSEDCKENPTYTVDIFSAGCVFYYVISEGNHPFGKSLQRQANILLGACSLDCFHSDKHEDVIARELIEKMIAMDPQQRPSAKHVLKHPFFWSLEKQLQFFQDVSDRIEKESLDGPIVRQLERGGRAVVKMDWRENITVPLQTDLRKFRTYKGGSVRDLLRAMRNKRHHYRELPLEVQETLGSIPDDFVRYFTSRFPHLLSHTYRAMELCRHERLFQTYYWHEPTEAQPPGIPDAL
Protocol: (§1) VSMCs were treated with tunicamycin (1 μg/ml) and either 4μ8c (30 μM) or STF-083010 (60 μM) for 6 h or 24 h. (A) Agarose gel for assessment of XBP1 splicing after 6 h of treatment with tunicamycin and densitometric quantification. (B) Western blot for assessment of ER chaperone expression after 24 h tunicamycin treatment with or without inhibition of IRE1α by 4μ8c. Data is presented as mean±SEM. *, p<0.05 vs. Vehicle; #, p<0.05 vs. Tm.
(§2) VSMCs were cultured in DMEM/F12 containing 1% FBS. Confluent cells were treated with L-ascorbic acid-2-phosphate (100 μg/ml) and either TGF-β1 (5 ng/ml) or Ang II (1 μM). (A) Agarose gel for assessment of TGF-β1-induced XBP1 splicing in VSMCs after 24 h. (B) Picro-Sirius Red assay for measurement of collagen deposition induced by combined TGF-β1 and AA2P treatment after 72 h, and inhibition by 4μ8c and STF-083010. (C) Western blot for assessment of collagen chaperone expression after treatment of TGF-β1 and 4μ8c for 48 h. *, p<0.05. (D) Measurement of Ang II-induced collagen production and inhibition by 4μ8c and STF-083010 after 72 h.
VSMCs were isolated from the aortas of 5-week old WKY rats using the explant method^29. The thoracic aorta was removed from the animal and placed in ice-cold 5× Antibiotics-Antimycotics solution (ThermoFisher). The adventitia was gently removed and the aorta was cut longitudinally. The endothelial layer was removed by gentle scraping with forceps. […]
Total RNA was extracted from cultured cells and rat tissues using the TRIzol reagent (ThermoFisher) according to manufacturer's instructions. RNA concentration and purity were measured using a Nanodrop ND-1000 spectrophotometer (NanoDrop Technologies, Inc.). […]
Aortic VSMCs were isolated from normotensive WKY rats and used for in vitro experiments. […] To test the ability of these compounds to block the IRE1α endonuclease, XBP1 splicing was measured in VSMCs treated with the ER stress inducer tunicamycin for 6 h with or without pre-treatment by 4μ8c or STF-083010. […]

[2] = tested on: GRP78, GRP94 and PDI; assay: Western blot of ER chaperone / ER stress marker expression in VSMCs; format: cell-based, rat; conditions: 24 h tunicamycin treatment, FIG. 1B
Protocol: as §1, §2
VSMCs were isolated from the aortas of 5-week old WKY rats using the explant method^29. The thoracic aorta was removed from the animal and placed in ice-cold 5× Antibiotics-Antimycotics solution (ThermoFisher). The adventitia was gently removed and the aorta was cut longitudinally. The endothelial layer was removed by gentle scraping with forceps. The aorta was cut into 3 mm^2 squares and placed on a 6 well plate in DMEM/F12 medium containing 10% fetal bovine serum (FBS). Explants were incubated undisturbed in a 5% CO2 incubator at 37° C. for 1 week and then passaged. […]
Cells were lysed in 1× Laemmli buffer and protein content was quantified using the BioRad DC Protein Assay (BioRad, Mississauga, Canada). […]

[3] = tested on: VSMCs; assay: Picro-Sirius Red assay of collagen synthesis in VSMCs; format: cell-based, rat
Protocol: as §2
VSMCs were isolated from the aortas of 5-week old WKY rats using the explant method^29. The thoracic aorta was removed from the animal and placed in ice-cold 5× Antibiotics-Antimycotics solution (ThermoFisher). The adventitia was gently removed and the aorta was cut longitudinally. The endothelial layer was removed by gentle scraping with forceps. The aorta was cut into 3 mm^2 squares and placed on a 6 well plate in DMEM/F12 medium containing 10% fetal bovine serum (FBS). Explants were incubated undisturbed in a 5% CO2 incubator at 37° C. for 1 week and then passaged. Sprague-Dawley renal fibroblasts were purchased (Cell Biologics) and cultured in low glucose DMEM/F12 medium containing 10% FBS, streptomycin (100 μgimp, and penicillin (100 U/ml, Invitrogen, Burlington, ON). Cells between passages 5 and 10 were used for experiments. Cells were cultured in medium containing 1% FBS overnight before treatment.
Collagen synthesis was measured using a Picro-Sirius Red-based assay as previously described^30. Briefly, cells cultured on a 96 well plate were fixed in methanol for 10 minutes at −20° C. Cells were washed once with PBS and incubated with Picrosirius Red stain (0.1% Direct Red 80 in saturated picric acid) for 1 h at room temperature. After the staining solution was removed, the cells were washed three times with 0.1% acetic acid and then imaged. The dye was then eluted with 0.1 N NaOH for 10 minutes on a rocking platform. Absorbance at 540 nm was measured using a Spectramax Plus Microplate Reader (Molecular Devices).
Cells were co-treated with either 4μ8c or S′TF-083010 to inhibit IRE1α endonuclease activity. TGF-β1 induced XBP1 splicing after 24 h, which was blocked by co-treatment with 4μ8c (FIG. 2A). Collagen production was measured using a Picro-Sirius Red-based colorimetric assay. TGF-β1 combined with AA2P induced collagen synthesis in the VSMCs, which was inhibited by co-treatment with 4μ8c or STF-083010 (FIG. 2B).

spliced-to-unspliced XBP1 ratio [1]: reduced
SMILES: O=S(=O)(/N=C/c1c(O)ccc2ccccc12)c1cccs1 [STF-083010, N-[(2-Hydroxy-1-naphthyl)methylene]-2-thiophenesulfonamide]
elevated expression levels of ER stress markers GRP78, GRP94 and PDI [2]: reduced
collagen synthesis induced by TGF-β1 combined with AA2P ([3]; 72 h, co-treatment, FIG. 2B): inhibited
collagen synthesis induced by Ang II ([3]; Ang II (1 μM) 72 h, FIG. 2D): inhibition
